Data as given in patent US6339062B1, “Retroinverso polypeptides that mimic or inhibit thrombospondin activity” (Inkine Pharmaceutical Company, Inc., priority 1998, dated 2002).
Marks after values point to notes of the source that are not given here. Where no end group is shown, it is not given here. [ ]: non-standard residue; d: D form. The star is where a group is joined. Acm = CC(=O)NC*

How the values were obtained:
[1] = Stability toward oxidation; format: physicochemical; details: compared with unblocked peptide
[2] = test system: mouse B16-F10 melanoma cells; experiment: Melanoma lung metastasis, one bolus i.v. or i.p. (Example 22); format: in vivo; details: for blocking activity in metastasis and the other assays, peptide versus blocked analogue: mouse, in vivo
Description: One bolus injection of Cys-(Acm)-Ser-Val-Thr-Cys-(Acm)-Gly (SEQ ID NO: 6) peptide (1 mg/mouse intravenously or 5 mg/mouse intraperitoneally ) was administered followed by intravenous injection of mouse B16-F10 melanoma cells (100,000). Each treatment group consisted of 5 animals. After 10 days animals were sacrificed and lung tumors counted. […] Error bars represent the standard error of the mean. P values between control and peptide-treated groups <0.001.

[3] = test system: mouse B16-F10 melanoma cells; experiment: Direct adhesion to dried peptide (Example 31); format: cell-based; details: 10 μg of each peptide; one hour; FIG. 20
Description: Peptide effect on direct adhesion was tested by drying 10 μg of each peptide on the bottom of a 96well microtiter plate. Plates were blocked with BSA. Mouse B16-F10 melanoma cells (50,000) were plated in each well and allowed to attach for one hour. Non-adherent cells were aspirated out, plates rinsed, and adherent cells were fixed, stained, and counted. The error bars represent the standard deviation.

[4] = test system: mouse B16-F10 melanoma cells; experiment: Melanoma lung metastasis, daily i.p. from day 3 after implantation (Example 23); format: in vivo, mice; details: daily i.p. for 10 days from day 3, FIG. 14
Description: Mice were intravenously injected with mouse B16-F10 melanoma cells (75,000). After 3 days, each mouse was treated daily by intraperitoneal injection with either PBS, 0.01 mg, or 1 mg of peptide for 10 days. Treatment groups consisted of 5 mice. After 10 days animals were sacrificed and lung tumors counted. Error bars represent the standard error of the mean. p<0.001 between control- and peptide-treated groups.

[5] = test system: mouse B16-F10 melanoma cells; experiment: Boyden chamber assay, TSP-1 mediated invasion of collagen (Examples 29, 30); format: cell-based; details: for dose-dependent effect on melanoma cell invasion: FIG. 19
Description: Cell invasion was investigated by the Boyden Chamber Invasion Assay using the modified Boyden chamber. T. Frandsen et al., Fibrinolysis, 6: 71-76 (1992). Polycarbonate filters, 12 μm pore size, e.g., Millicell, Millipore Corporation, Bedford, Ma, were coated with 100 μg Type IV collagen (1 mg/ml 60% EtOH) and dried overnight at 25° C. Blind-well Boyden chambers are filled with 600 μl of serum-free media containing 0.1% BSA in the lower compartment, and the coated filters will be mounted in the chamber. Approximately 50,000 cells (tested to be greater than 95% viable) suspended in 400 μl of the same media will be placed in the upper chamber of the apparatus and allowed to settle onto the collagen-coated membrane. Varying concentrations of TSP-1 (0-150 nM) will be placed in the lower compartment and any neutralizing antibodies as well as peptides will be placed in the upper chamber. After an incubation period of about 3 to 6 hours at 37° C., the cells on the upper surface of the filter will be removed with a cotton swab. The filters are then fixed in 3% glutaraldehyde solution and stained with 0.5% crystal violet solution. Invasive cells adhering to the under-surface of the filter are counted using a phase contrast microscope (400×).
Using this assay, mouse B16-F10 melanoma cells (50,000) were plated on the collagen-coated disk of the Boyden chamber apparatus. The top chamber contained melanoma cells in the presence of 500 μg/ml of the TSP-1 derived peptide and the bottom chamber contained 20 μg/ml TSP-1. After 6 hours, cells traversing the collagen were counted as cells attached to the underside of the collagen-coated disk. Five representative fields per chamber in duplicate were counted. The data shown in FIG. 18 represents the average per field and the error bars represent the standard deviation. The scrambled peptide, Val-Cys-Thr-Gly-Ser-Cys (SEQ ID NO: 7), the irrelevant peptide, Ala-Ser-Val-Thr-Ala-Arg (SEQ ID NO: 38), buffer, and the d-amino acid Cys-Ser-Val-Thr-Cys-Gly (SEQ ID NO: 40) had no effect on invasion.
The experiments were performed as described for Example 29. […] In contrast, d-Cys-Ser-Val-Thr-Cys-Gly (SEQ ID NO: 40) had no effect.

rat aorta = experiment: Angiogenesis in serum-free collagen gel culture of rat aorta (Example 28); format: cell-based; details: compared to untreated control or scrambled peptide control; FIG. 17
From the text: Error bars=SEM. Photo-micrograph (4× magnification) of a representative aortic ring culture treated either with Cys-Ser-Val-Thr-Cys-Gly (SEQ ID NO: 1) or Val-Cys-Thr-Gly-Ser-Cys (SEQ ID NO: 7) (FIG. 17B). The Cys-Ser-Val-Thr-Cys-Gly (SEQ ID NO: 1)-treated culture has fewer capillary outgrowths than the Val-Cys-Thr-Gly-Ser-Cys (SEQ ID NO: 7) scrambled peptide control.

[6] = test system: human MDA-MB-231 breast carcinoma cells; experiment: Athymic model of human tumor progression, peptide experiments (Example 24); format: in vivo, athymic mice
Description: To further evaluate the anti-metastatic properties of the Cys-Ser-Val-Thr-Cys-Gly (SEQ ID NO: 1) peptide, we measured the effect of peptide and antibody against the Cys-Ser-Val-Thr-Cys-Gly (SEQ ID NO: 1) receptor in an athymic model of human tumor progression. In this model, human MDA-MB-231 breast carcinoma cells were injected intraperitoneally in athymic mice. Animals were then treated with either peptide or receptor IgG for three weeks after which the extent of lung and liver metastasis is determined.
For the peptide experiments, eighteen mice were inoculated with MDA-MB-231 human breast cancer cells. After 72 hours, mice were randomized to treatment with every-other-day intraperitoneal injections of saline, scrambled peptide, or a Cys-Ser-Val-Thr-Cys-Gly (SEQ ID NO: 1) peptide for 20 days. One mouse treated with the Cys-Ser-Val-Thr-Cys-Gly (SEQ ID NO: 1) peptide expired after traumatic injection. Mice were sacrificed at 21 days. The peritoneal cavity was examined grossly for primary tumor implantation. The liver and lungs were examined histologically for micrometastases. Statistical analysis was performed by Chi-square analysis.

washed human platelets = experiment: Collagen-induced platelet aggregation (Examples 9, 10); format: cell-based; details: 5 μg/ml collagen; various concentrations; FIG. 10
Description: Washed human platelets were suspended in HEPES-buffered saline, containing 5 mM glucose and 350 μg/ml BSA. 0.5 ml aliquots of platelets were aggregated by stirring with 5 μg/ml collagen in the presence of 500 μg/ml of various peptides. Aggregation was measured at 37° C. as decrease in optical absorbance vs. time in a Chrono-log aggregometer and is shown in FIG. 9. 100% aggregation was defined as the maximal decrease in absorbance measured in the absence of peptide. % of control was calculated as the decrease in absorbance measured in the presence of peptide divided by the decrease in absorbance measured in the absence of peptide times 100. Peptides are designated under each bar graph by their amino acid sequence represented using the one letter amino acid code.
Washed human platelets were suspended in HEPES-buffered saline, containing S mM glucose and 350 μg/ml BSA. […] Aggregation was measured at 37° C. as decrease in optical absorbance vs. time in a chrono-log aggregometer and is shown in FIG. 10. 100%; aggregation was defined as the maximal decrease in absorbance measured in the absence of peptide. % of control was calculated as the decrease in absorbance measured in the presence of peptide divided by the decrease in absorbance measured in the absence of peptide times 100.

[7] = test system: MMP-9 production in BAE cells; experiment: TSP-1-stimulated endothelial MMP-9 production (Example 27); format: cell-based
Description: BAE cells were treated with TSP-1 as described in Example 27. MMP-9 levels were quantitated from densitometry of the zymograms prepared from the BAE cell conditioned media. The control was 15 μg/ml TSP-1. All other treatments were performed in the presence of 15 μg/ml TSP-1.

[8] = test system: mouse B16-F10 melanoma cells; experiment: Melanoma tumor cell metastasis, peptide i.v. (Example 21); format: in vivo, mice; details: 1 mg peptide i.v. shortly before or after tumor implantation; two weeks; FIG. 12
From the text: Mice were sacrificed two weeks later and lung tumors counted. Treatment groups consisted of five animals. The photograph of FIG. 12 depicts three lungs from each treatment group. The black spots are melanoma tumors. All metastasis experiments were repeated 2-3 times showing qualitatively similar results depicted in the bar graph of FIG. 12.

[9] = test system: mouse B16-F10 melanoma cells; experiment: Tumor cell metastasis, one i.p. injection of peptide (Example 32); format: in vivo; details: 1 mg peptide i.p. once; 14 days; FIG. 21
Description: Mouse B16-F10 melanoma cells (75,000 ) were injected intravenously and was immediately followed by one intraperitoneal injection of 1 mg of peptide. Six animals were treated with each peptide. Animals were sacrificed 14 days later and lung colonies counted. The data shown in FIG. 21 represents the mean of lung colonies and the error bars represent the standard error of the mean. The peptides, d-Gly-Cys-(Acm)-Thr-Val-Ser-Cys-(Acm) (retroinverso) (SEQ ID NO: 35), and l-Cys-(Acm)-Ser-Val-Thr-Cys-(Acm)-Gly (SEQ ID NO: 6) inhibited metastasis by more than 80%, whereas d-Cys-Ser-Val-Thr-Cys-Gly (SEQ ID NO: 40) had no effect.

[10] = i.p. every other day for 20 days, sacrificed at 21 days

| Substance | stability toward oxidation [1] | blocking activity in metastasis and the other assays, peptide versus blocked analogue [2] | fewer lung metastasis as compared to saline or scrambled peptide controls ([2]; one bolus, 1 mg/mouse i.v. or 5 mg/mouse i.p., 10 days) | large lung metastases ([2]; one bolus, 10 days) | adhesion of cells to dried peptide [3] | reduction in lung colonies with respect to buffer-treated ([4]; 0.01 mg/ml-treated animals) | suppression of melanoma colonies ([4]; 1 mg/ml treated animals) | dose-dependent effect on melanoma cell invasion [5] | angiogenesis (capillary outgrowths) (rat aorta) | in vivo breast cancer progression; metastases in the two organs examined ([6]; compared with saline or scrambled peptide groups) | intraperitoneal tumors ([6]; gross examination at 21 days) | Liver: no. of animals with metastases/total no. of animals [6, 10] | Lungs: no. of animals with metastases/total no. of animals [6, 10] | collagen-induced platelet aggregation, dose response (washed human platelets) | % inhibition (MMP-9) ([7]; 0.20 mM, with 15 μg/ml TSP-1) | Relative MMP-9 Levels ([7]; 0.20 mM, with 15 μg/ml TSP-1) | inhibited MMP-9 production ([7]; at high doses) | melanoma cell metastasis (lung tumors) [8] | inhibition of metastasis (lung colonies) [9] | inhibition of TSP-1 mediated invasion ([5]; 500 μg/ml peptide top chamber, 20 μg/ml TSP-1 bottom chamber, 6 hours, FIG. 18) |
| --- | --- | --- | --- | --- | --- | --- | --- | --- | --- | --- | --- | --- | --- | --- | --- | --- | --- | --- | --- | --- |
| C(Acm)SVTC(Acm)G | more stable toward oxidation | identical blocking activity | 80% | few large lung metastases | half as well as fibronectin and TSP-1 | 27% | more than 80% | same dose-dependent inhibition | – | – | – | – | – | – | – | – | – | – | – | – |
| CSVTCG (cysteine pairing not given here) | – | identical blocking activity | – | – | half as well as fibronectin and TSP-1 | – | – | – | inhibited angiogenesis | significantly decreased metastases | fewer and smaller intraperitoneal tumors | 1/5* | 0/5 | inhibit collagen-induced platelet aggregation | 86% | 0.14 | 86% | significantly blocked | – | – |
| [dC]SVTCG (cysteine pairing not given here) | – | – | – | – | did not promote adhesion | – | – | no effect | – | – | – | – | – | – | – | – | – | – | no effect | no effect |
